Source: PubChem BioAssay (NCI)
“And” between values parts separate entries of the source, which are not always exact repeats. Equal values may be shown once.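 48-hour exposure; five concentrations; linearly interpolated endpoints. Abbreviation: GI50, concentration required for 50% inhibition of growth. TGI marks complete inhibition of growth.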

Legend:
Experiment in all cases: growth of human tumour cells (NCI), 48 h
OVCAR-4 ovarian = test system: OVCAR-4 ovarian
U251 CNS = test system: U251 CNS
NCI-H23 lung = test system: NCI-H23 lung
RPMI-8226 leukemia = test system: RPMI-8226 leukemia
LOX IMVI melanoma = test system: LOX IMVI melanoma
EKVX NSCLC = test system: EKVX NSCLC
K-562 leukemia = test system: K-562 leukemia
SR leukemia = test system: SR leukemia
SNB-75 CNS = test system: SNB-75 CNS
CAKI-1 renal = test system: CAKI-1 renal

| Compound | GI50 (OVCAR-4 ovarian) | TGI (OVCAR-4 ovarian) | GI50 (U251 CNS) | TGI (U251 CNS) | GI50 (NCI-H23 lung) | TGI (NCI-H23 lung) | GI50 (RPMI-8226 leukemia) | TGI (RPMI-8226 leukemia) | GI50 (LOX IMVI melanoma) | TGI (LOX IMVI melanoma) | GI50 (EKVX NSCLC) | TGI (EKVX NSCLC) | GI50 (K-562 leukemia) | TGI (K-562 leukemia) | GI50 (SR leukemia) | TGI (SR leukemia) | GI50 (SNB-75 CNS) | TGI (SNB-75 CNS) | GI50 (CAKI-1 renal) | TGI (CAKI-1 renal) |
| --- | --- | --- | --- | --- | --- | --- | --- | --- | --- | --- | --- | --- | --- | --- | --- | --- | --- | --- | --- | --- |
| COc1cccc(-c2nn(-c3ccccc3)cc2-c2ccnc(NCCNS(=O)(=O)c3ccc(C(F)(F)F)cc3)c2)c1 | 2.94 µM | > 100 µM | 3.54 µM | 13.9 µM | 3.23 µM | > 100 µM | 2.42 µM | 7.86 µM | 1.84 µM | 3.78 µM | 3.16 µM | > 100 µM | 2.87 µM | 19.4 µM | 1.77 µM | 4.6 µM | 3.18 µM | 37.1 µM | 3.64 µM | > 100 µM |
| CC1(C)SC2C(C(=O)O)N=C(Cc3ccccc3)N2C1C(=O)O (stereo not given) | – | > 100 µM | – | > 100 µM | – | > 100 µM | – | > 100 µM | – | 60.5 µM | – | 29.7 µM | – | > 100 µM | – | > 100 µM | – | 49.2 µM | – | > 100 µM |
| O=S(=O)(NCCNc1cc(-c2cn(-c3ccccc3)nc2-c2cccc(O)c2)ccn1)c1ccc(C(F)(F)F)cc1 | 2.85 µM | 16.9 µM | 2.65 µM | 7.28 µM | 2.97 µM | 15.4 µM | 2.77 µM | 7.85 µM | 1.7 µM | 3.29 µM | 2.25 µM | 11.8 µM | 2.48 µM | 6.58 µM | 1.31 µM | 4.29 µM | 2.63 µM | 14 µM | 1.94 µM | 5.35 µM |
| c1cncc(C2c3[nH]c4ccccc4c3CCN2CCCN2CCCCC2)c1 (stereo not given) | – | > 100 µM | – | > 100 µM | – | > 100 µM | – | > 100 µM | – | > 100 µM | – | > 100 µM | – | > 100 µM | – | > 100 µM | – | > 100 µM | – | > 100 µM |
| COc1cc2c(c(OC)c1OC)-c1ccc([O-])c(=O)cc1[C@@H](NC(C)=O)CC2.COc1cc2c(c(OC)c1OC)-c1ccc([O-])c(=O)cc1[C@@H](NC(C)=O)CC2.[Cu+2] | 4.91 µM | > 100 µM | 3.48 µM | > 100 µM | 3.73 µM | > 100 µM | 3.17 µM | 38.2 µM | 4.3 µM | > 100 µM | 4.64 µM | > 100 µM | 2.48 µM | > 100 µM | 1.54 µM | 6.89 µM | 5.39 µM | > 100 µM | 4.96 µM | 63.1 µM |
| CCCCCCCC1c2cc3[nH]c(cc4nc(cc5[nH]c(cc(n2)[C@@]1(C)CC(=O)N(C)C)c(C)c5CCC(=O)O)C(CCC(=O)O)=C4C)cc3C (stereo not given in full) | – | > 100 µM | – | 32.9 µM | – | 34.1 µM | – | 47.7 µM | – | 33.3 µM | – | > 100 µM | – | 56.7 µM | – | 44.6 µM | – | 40 µM | – | > 100 µM |
| CN1CCN(C(=O)c2ccc(NC(=O)Nc3ccc(N(C)c4ccnc(Nc5ccc(CS(C)(=O)=O)cc5)n4)cc3)cc2)CC1 | 8.15 µM | > 25 µM | 6.26 µM | > 25 µM | 19 µM | > 25 µM | 8.85 µM | > 25 µM | 10 µM | > 25 µM | > 25 µM | > 25 µM | 12.6 µM | > 25 µM | > 12.7 µM | > 25 µM | 12.7 µM | > 25 µM | > 25 µM | > 25 µM |
| CSc1ccc(-c2cn3ccsc3n2)c(O)c1 | – | 98.7 µM | – | > 100 µM | – | > 100 µM | – | > 65 µM | – | > 56.5 µM | – | > 100 µM | – | > 60.2 µM | – | 88.3 µM | – | > 94.7 µM | – | > 100 µM |
| CNC(=O)c1ccc(Nc2ncc(C(F)(F)F)c(NCc3nccnc3N(C)S(C)(=O)=O)n2)cc1 | 5.37 µM and 2.41 µM and 1.9 µM | > 10 µM and 12.8 µM and 10.5 µM | 3.29 µM and 3.18 µM and 2.88 µM | > 10 µM and 12 µM and 13.6 µM | 2.61 µM and 2.38 µM and 2.81 µM | 8.64 µM and 7 µM | 2.59 µM and 2.95 µM and 2.27 µM | 6.9 µM and 8.16 µM and 7.58 µM | 2.1 µM and 2.06 µM and 2.02 µM | > 10 µM and 8.03 µM and 8.91 µM | 2.49 µM and 2.64 µM | > 10 µM and 10.8 µM | 4.84 µM and 3.2 µM and 3.42 µM | > 10 µM and 17.7 µM and > 61.1 µM | 1.91 µM and 1.33 µM and 2.39 µM | 8.17 µM and 7.7 µM and 9.42 µM | 1.52 µM and 1.41 µM | 4.9 µM | 1.8 µM and 1.41 µM and 1.88 µM | > 10 µM and 8.35 µM and 12.1 µM |
| O=C(OC(C(=O)O)C(OC(=O)c1ccccc1)C(=O)O)c1ccccc1 (stereo not given) (tested in a mixture with another compound) | – | > 100 µM | – | > 100 µM | – | > 100 µM and 84.2 µM | – | > 100 µM | – | > 100 µM and 44.6 µM | – | > 100 µM | – | > 100 µM | – | > 100 µM | – | > 100 µM and 56 µM | – | > 100 µM and 52.2 µM |
| Cc1cc(N(CCOS(C)(=O)=O)CCOS(C)(=O)=O)ccc1C=Nc1ccc(-c2csc(-c3ccccc3)n2)c(Cl)c1 | – | 51.3 µM | – | > 64.8 µM | – | 29 µM | – | > 71 µM | – | 28.3 µM | – | 29.1 µM | – | 51 µM | – | 17.9 µM | – | 14.1 µM | – | 1.32 µM |
| COc1ccc(C(=O)/C=C/c2cc3ccccc3[nH]c2=O)cc1 | 19.5 µM | > 100 µM | 17.5 µM | 43 µM | 19.7 µM | > 53 µM | 18.4 µM | > 100 µM | 13.7 µM | 25.4 µM | 22.6 µM | > 94.3 µM | > 57.6 µM | > 100 µM | 17.3 µM | > 100 µM | 15.3 µM | 34.8 µM | 14.9 µM | 28.2 µM |
| C/C(=C\c1ccn(-c2ccc(N)c(C(F)(F)F)c2)n1)[C@@H]1C[C@@H]2O[C@]2(C)CCC[C@H](C)[C@H](O)[C@@H](C)C(=O)C(C)(C)[C@@H](O)CC(=O)O1 | 0.132 µM | > 32.5 µM | < 0.012 µM | 8.55 µM | 0.0221 µM | > 32.5 µM | < 0.0104 µM | 10.5 µM | 0.0122 µM | > 20.8 µM | 0.344 µM | > 32.5 µM | 0.0109 µM | > 32.5 µM | 0.00813 µM | 8.64 µM | 0.00413 µM | 0.0876 µM | 0.0429 µM | > 32.5 µM |
| Nc1ncc(-c2cnn(C3CCNCC3)c2)cc1-c1nc2ccccc2o1 | 1.3 µM | 3.53 µM | 1.48 µM | 3.26 µM | 1.35 µM | 12.7 µM | 0.857 µM | 2.7 µM | 1.2 µM | 2.59 µM | 4.4 µM | 17.8 µM | 0.309 µM | 1.07 µM | 0.266 µM | 1.09 µM | 1.31 µM | 2.67 µM | 0.532 µM | 2.85 µM |
